The record followed here is patent publication US7226754B2, “Kinase Wee1 fusion protein compositions, nucleotide sequences, expression systems, and methods of use” (The Scripps Research Institute, priority 1998, dated 2007).

Molecules are shown by their SMILES.

One assay concerns GST:Wee1. The assay can be described thus: GST:Wee1 phosphorylation by associated kinase from lysates of HU-treated cells. The format is cell-based, Schizosaccharomyces pombe. The following applies: lysates of cells treated with 12 mM HU, 1 hr time course at 30° C. The protocol:
FIG. 1B is a photograph of an analysis of proteins from cells that were treated with 12 mM HU for a 1 hr time course at 30° C. Cell lysates were incubated with GST:Wee1 proteins bound to GSH-Sepharose. The GSH-Sepharose was washed and assayed for associated kinase activity. The positions of GST:Wee1^152 and GST:Wee1^70 following 12% SDS-polyacrylamide gel electrophoresis are shown.
The GST:Wee1^152 and GST:Wee1^70 proteins prepared in Example 1 were used to study yeast cellular functions. To that end, the isolated proteins were bound to glutathione (GSH)-Sepharose and mixed with cell lysates from the fission yeast Schizosaccharomyces pombe (S. pombe) harvested at intervals during incubation with hydroxyurea (HU).
(§1) The cell lysates were obtained from a variety of strains of S. pombe cells having the following genotypes: PR109, wild-type; NB2117, cds1::ura4+; NB2118, cds1:2HA6His:ura4+; NR1826, rad3::ura4+; OM591, cdc22-M45; NR1593, rad1::ura4+; NR1592,chk1::ura4+; BF1758, nmt1:GST:chk1:leu1+; BF1916, nmt1:GST:cds1:leu1+; OM2173, mik1:2HA6His:ura4+; OM2183, mik1:2HA6His:ura4+cds1::ura4+; PR712, mik1::ura4+; and BF2115, cds1::ura4+chk1::ura4+. All strains were leu1-32 ura4-D18. All nmt1 promoter constructs were integrated at the leu1-32 locus. […]
The proteins bound to GSH-Sepharose were washed, incubated with [gamma-^32P]ATP and analyzed by SDS-polyacrylamide gel electrophoresis (FIG. 1B). […]

For assay [1], the system named is Schizosaccharomyces pombe. The assay can be described thus: HU sensitivity (survival) of S. pombe strains. The format is cell-based. Conditions: for sensitivity to killing by HU: 12 mM HU. How it is done: FIG. 3D is a photograph of cell cultures which illustrates that Mikl is important for survival of HU treatment. Serial dilutions or wild-type and mik1 cells were plated in YES medium supplemented with 0 or 6 mM HU and incubated for 2 days at 30° C.
Cells were first grown in YES (yeast extract and glucose) medium to an OD600 of 1.0 and then treated with HU (12 mM) for 90 min at 30 C. Synchronous cells were then obtained by centrifugal elutriation with a Beckman JE-5.0 elutriation rotor. These cells were diluted to an OD600 of 0.3 in YES containing 12 mM HU and grown at 30 C. for a further 4 hr. Cells were scored for progression through mitosis by microscopic observation. HU sensitivity studies were carried out with cells grown to an OD600 of 0.3 in YES medium and then diluted to 13,000 cells/ml in YES media containing HU (12 mM), followed by growth at 30 C. for a further 8 hr. Samples (75 μl) were taken at regular intervals, plated onto YES plates and grown for 4 days at 30 C. to determine survival.

The next assay relates to Mik1. The assay can be described thus: Mik1HAHIS abundance in HU-treated cells (immunoblot). The assay is classed as cell-based, Schizosaccharomyces pombe. Conditions: cells treated 4 hrs with 12 mM HU vs mock-treated. The protocol: FIG. 3C is a photograph of an analysis of proteins which illustrates that Cds1 and Rad3-dependent increase in Mik1 abundance in HU-treated cells. Wild-type, Cds1 and rad3 cells in which genomic mik1 encoded Mik1^HAHIS protein were incubated for 4 hrs in YES at 25° C. with 12 mM HU or mock-treated. Mik1HARIS protein was purified by Ni^2+-NTA purification in denaturing conditions and detected by immunoblotting with antibodies to HA.
Phosphorylation of Wee1 by Cds1 may play a role in the DNA replication checkpoint. However, wee1 mutants arrest division in response to HU (Enoch et al, Cell, 60:665, 1990), thus another protein that controls Cdc2 Tyr^15 phosphorylation must also be regulated by the replication checkpoint. The kinase Mik1 phosphorylates Cdc2 on Tyr^15 (Lundgren et al, Cell, 64:1111, 1991), therefore the abundance of Mik1 was monitored in HU-treated cells using a strain expressing Mik1^HAHIS from the genomic locus. […] The abundance of mik1 mRNA was unchanged in HU-treated cells, thus HU must influence Mik1 synthesis or turnover. […] Mik1 is a dose-dependent inhibitor of mitosis (Lundgren et al, Cell, 64:1111, 1991), thus the increase of Mik1 abundance in HU-treated cells should help to enforce the checkpoint.
On the technique in general: In western blotting, separated proteins are transferred to a membrane and probed.

Assay [2] concerns Cds1. The assay can be described thus: Cds1HAHIS autophosphorylation assay after HU treatment of cells. The following applies: Cds1HAHIS purified from HU or mock-treated cells. The format is cell-based, Schizosaccharomyces pombe. The source says: FIG. 3B is a photograph of an analysis of proteins which illustrates that HU activates Cds1 kinase activity. In a separate experiment Cds1^HAHIS was purified in native conditions and assayed for autophosphorylation activity (upper panel). Immunoblot analysis confirmed that similar amounts of Cds1HAHIS were recovered in the HU and mock-treated samples (lower panel).
Cds1^HAHIS was also purified from HU or mock-treated cells and assayed in an autophosphorylation assay. Phosphorylation of Cds1 was increased in samples from cells treated HU (FIG. 3B). Similar results were obtained using GST:Wee1^70 as a substrate. Thus HU apparently both activates Cds1 as a kinase and stimulates binding to Wee1.

Assay [3] has as its system Cds1. The assay can be described thus: Binding of Cds1HAHIS from cell lysates to GST:Wee1 (immunoblot). The assay is classed as cell-based, Schizosaccharomyces pombe. Conditions: lysates of Cds1HAHIS cells treated 3.5 hr with HU vs mock-treated. The source says:
FIGS. 3A–3D illustrate that HU stimulates Cds1 kinase activity, binding of Cds1 to GST:Wee1^70 in lysates and accumulation of Mik1 as described in Example 2. FIG. 3A is a photograph of an analysis of proteins which illustrates that HU stimulates Cds1 binding to GST:Wee1^70. A culture of cells expressing Cds1^HAHIS from the cds1 genomic locus was split and treated for 3.5 hr with HU or mock-treated. The cultures were split again and samples processed for Ni^2+-NTA purification of Cds1^HAHIS in denaturing conditions or purification of proteins that bind GST:Wee1 proteins in nondenaturing conditions. After extensive washing, samples were resolved by 10% SDS-polyacrylamide gel electrophoresis and subjected to immunoblot analysis.
HU may increase the abundance of Cds1, or it may make Cds1 competent to associate with Wee1, or perhaps the replication checkpoint enhances the kinase activity of Cds1. Cells expressing Cds1^HAHIS were treated with HU or mock-treated; lysates were made and precipitated with GST:Wee1 proteins. Association of Cds1^HAHIS with GST:Wee1 was detected in lysates from cells treated with HU, whereas no Cds1^HAHIS associated with GST:Wee1 in mock-treated samples (FIG. 3A).

In assay [4] the test system is Schizosaccharomyces pombe. The assay can be described thus: Replication checkpoint: progression through mitosis of synchronous cultures in the presence of HU. The format is cell-based. Conditions: 12 mM HU. The protocol: FIGS. 5A–5B are graphs which illustrate that replication checkpoint is abolished in Cds1 chk1 cells as described in Example 2. […] Progression through mitosis in the presence of 12 mM HU was monitored by scoring binucleate or septated cells. The cds1 chk1 double mutant and rad3 cells underwent mitosis in the presence of HU, whereas division was arrested in control strains (wild-type, Cds1 and chk1 single mutants).
as §1, with “locus. Growth media and general methods for S. pombe have been described [Moreno et al, Meth. Enzymol., 194:795 (1991)]. Unless otherwise indicated, yeast cultures were grown in YES medium at 30 C.” for “locus.”
Cells were first grown in YES (yeast extract and glucose) medium to an OD600 of 1.0 and then treated with HU (12 mM) for 90 min at 30 C. […] Cells were scored for progression through mitosis by microscopic observation. […]

As to `NC(=O)NO` [HU, hydroxyurea], the “phosphorylation of GST:Wee1^152 and GST:Wee1^70” value with GST:Wee1 was “increased”. Further, the “sensitivity to killing by HU” value in assay [1] (Cds1 cells) was “moderately sensitive”; in assay [1] (Cds1 chk1 double mutant cells) it was “acutely sensitive to killing”; in assay [1] (wild-type and chk1 cells) it was “not sensitive”. The “sensitivity to HU” value in assay [1] (mik1 mutants, YES medium with 0 or 6 mM HU, 2 days at 30° C.) is “enhanced sensitivity”. For the same molecule, in the assay on Mik1, the “amount of Mik1HAHIS” value was “increased”. Besides, the “phosphorylation of Cds1 (autophosphorylation)” value in the assay with Cds1 [2] is recorded as “increased”. Moreover, in the assay with Cds1 [3], the “association of Cds1 with GST:Wee1” value is “enhanced association”. In addition, the “cell division in the presence of HU” value in assay [4] (Cds1 chk1 double mutant cells) is “underwent division”; in assay [4] (wild-type cells, Cds1 and chk1 single mutants), “arrested division”.
